Assay results taken from the supplement of paper PMC10307832.

Tests used:
Assay in all cases: relative viability (nuclei count vs DMSO), 5 days (fraction); higher = more cells survive
[1] = compound: COc1cc2/c(=N/c3ccc(Br)cc3F)nc[nH]c2cc1OCC1CCN(C)CC1 [Vandetanib] + O=C(c1cc(Cc2n[nH]c(=O)c3ccccc23)ccc1F)N1CCN(C(=O)C2CC2)CC1 [Olaparib] (partner 8 µM)
Summary of the method: (§1)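 Nuclei were stained with Hoechst during a one-step fixation (final 0.05% Triton X-100, 1% formaldehyde, 1 ug/ml Hoechst) carried out 5 days after dosing, then counted on 4× images. The cells, lung cancer lines in 1536-well plates, had been dosed by pin tool the day after seeding with one drug alone or a fixed anchor-drug dose plus five library-drug doses (not always all listed) in √10 steps. Relative viability is the nuclei count in treated wells divided by that in vehicle wells, and each value is the median of duplicate plates.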

[2] = compound: COc1cc2/c(=N/c3ccc(Br)cc3F)nc[nH]c2cc1OCC1CCN(C)CC1 [Vandetanib] + N=C(N)NC(=N)NCCc1ccccc1 [Phenformin] (partner 250 µM)
Summary of the method: as §1

[3] = compound: C1=CC=C2C(=C1)N=C(S2)C(C#N)C3=NC(=NC=C3)NCCC4=CN=CC=C4 + COc1cccc2cc(-c3nc([C@H]4CC[C@H](C(=O)O)CC4)n4ncnc(N)c34)[nH]c12 [OSI-027] (partner 0.5 µM)
Summary of the method: as §1

[4] = compound: COc1cc2/c(=N/c3ccc(Br)cc3F)nc[nH]c2cc1OCC1CCN(C)CC1 [Vandetanib] + Cc1nc(NC(=O)N2CCC[C@H]2C(N)=O)sc1-c1ccnc(C(C)(C)C(F)(F)F)c1 [Alpelisib] (partner 2 µM)
Summary of the method: as §1

Row | Cell Line | relative viability ([1]; first compound 0.02 µM) | relative viability ([1]; first compound 0.06325 µM) | relative viability ([1]; first compound 0.2 µM) | relative viability ([1]; first compound 0.6325 µM) | relative viability ([1]; first compound 2 µM) | relative viability ([2]; first compound 0.02 µM) | relative viability ([2]; first compound 0.06325 µM) | relative viability ([2]; first compound 0.2 µM) | relative viability ([2]; first compound 0.6325 µM) | relative viability ([2]; first compound 2 µM) | relative viability ([3]; first compound 0.005 µM) | relative viability ([3]; first compound 0.01581 µM) | relative viability ([3]; first compound 0.05 µM) | relative viability ([3]; first compound 0.1581 µM) | relative viability ([3]; first compound 0.5 µM) | relative viability ([4]; first compound 0.02 µM) | relative viability ([4]; first compound 0.06325 µM) | relative viability ([4]; first compound 0.2 µM) | relative viability ([4]; first compound 0.6325 µM) | relative viability ([4]; first compound 2 µM)
1 | EKVX | 0.854 | 0.761 | 0.904 | 0.813 | 0.563 | 0.245 | 0.234 | 0.228 | 0.227 | 0.219 | 0.736 | 0.909 | 0.681 | 0.69 | 0.659 | 0.95 | 0.873 | 0.86 | 0.777 | 0.424
2 | NCI-H322M | 0.76 | 0.709 | 0.718 | 0.681 | 0.585 | 0.7 | 0.731 | 0.852 | 0.622 | 0.493 | 0.515 | 0.463 | 0.529 | 0.585 | 0.685 | 0.772 | 0.746 | 0.777 | 0.709 | 0.866
3 | SK-MES-1 | 0.71 | 0.676 | 0.708 | 0.606 | 0.424 | 0.657 | 0.608 | 0.62 | 0.581 | 0.471 | 0.483 | 0.659 | 0.48 | 0.722 | 0.558 | 0.913 | 0.929 | 0.86 | 0.851 | 0.646
4 | NCI-H1355 | 0.754 | 0.665 | 0.734 | 0.825 | 0.684 | 0.436 | 0.461 | 0.431 | 0.448 | 0.406 | 0.402 | 0.348 | 0.341 | 0.411 | 0.369 | 0.811 | 0.772 | 0.466 | 0.958 | 0.822
5 | NCI-H2126 | 0.883 | 0.888 | 0.818 | 0.923 | 0.88 | 0.541 | 0.5 | 0.522 | 0.495 | 0.49 | 0.739 | 0.676 | 0.732 | 0.705 | 0.677 | 0.787 | 0.74 | 0.757 | 0.737 | 0.674
6 | NCI-H520 | 0.299 | 0.343 | 0.379 | 0.35 | 0.324 | 0.563 | 0.58 | 0.481 | 0.518 | 0.548 | 0.199 | 0.261 | 0.222 | 0.32 | 0.272 | 0.832 | 0.924 | 1.04 | 0.868 | 0.921
7 | NCI-H1755 | 0.917 | 0.863 | 0.848 | 0.822 | 0.863 | 0.67 | 0.593 | 0.671 | 0.38 | 0.609 | 0.709 | 0.733 | 0.727 | 0.745 | 0.67 | 0.935 | 0.888 | 0.872 | 0.896 | 0.858
8 | NCI-H358 | 0.552 | 0.527 | 0.646 | 0.472 | 0.319 | 0.295 | 0.275 | 0.265 | 0.217 | 0.26 | 0.726 | 0.749 | 0.805 | 0.913 | 0.739 | 0.741 | 0.733 | 0.175 | 0.533 | 0.385
9 | NCI-H2228 | 0.65 | 0.566 | 0.719 | 0.661 | 0.559 | 0.263 | 0.281 | 0.384 | 0.294 | 0.303 | 0.404 | 0.556 | 0.561 | 0.578 | 0.492 | 0.75 | 0.587 | – | 0.712 | 0.624
10 | NCI-H2347 | 0.538 | 0.525 | 0.596 | 0.692 | 0.553 | 0.336 | – | 0.256 | 0.403 | 0.493 | 0.454 | 0.394 | 0.39 | 0.58 | 0.408 | 1.01 | 0.591 | 1.05 | 1.28 | 1.03
11 | HCC-15 | 0.72 | 0.677 | 0.782 | 0.713 | 0.722 | 0.476 | 0.429 | 0.468 | 0.449 | 0.447 | 0.558 | 0.644 | 0.722 | 0.863 | 0.531 | 0.877 | 0.84 | 0.93 | 0.874 | 0.793
12 | NCI-H23 | 0.346 | 0.275 | 0.328 | 0.343 | 0.335 | 0.763 | 0.733 | 0.8 | 0.777 | 0.742 | 0.566 | 0.552 | 0.474 | 0.601 | 0.614 | 0.609 | 0.613 | 0.566 | 0.772 | 0.532
13 | LC-2-ad | 0.673 | 0.711 | 0.695 | 0.792 | 0.714 | 0.615 | 0.512 | 0.548 | 0.475 | 0.305 | 0.724 | 0.803 | 0.912 | 0.875 | 0.695 | 0.815 | 0.876 | 0.898 | 0.802 | 0.498
14 | LCLC-97TM1 | 0.374 | 0.377 | 0.357 | 0.352 | 0.343 | 0.457 | 0.42 | 0.441 | 0.393 | 0.422 | 0.562 | 0.701 | 0.537 | 0.607 | 0.572 | 0.223 | 0.243 | 0.204 | 0.22 | 0.209
15 | HOP-62 | 0.51 | 0.397 | 0.265 | 0.373 | 0.447 | 0.689 | 0.664 | 0.487 | 0.728 | 0.703 | 0.669 | 0.828 | 0.762 | 0.989 | 0.793 | 0.814 | 0.836 | 0.746 | 0.972 | 0.993
16 | NCI-H2085 | 0.77 | 0.72 | 0.808 | 0.769 | 0.712 | 0.769 | 0.674 | 0.649 | 0.668 | 0.595 | 0.675 | 0.738 | 0.57 | 0.931 | 0.663 | 0.98 | 0.901 | 0.873 | 0.869 | 0.936
